Here are results for one molecule from patent publication US20030125311A1, “Compounds capable of binding with the cytoskeleton” (priority 2002, published 2003).

Test [1] relates to calf brain tubulin assembled with calf brain MAP2. Kind of test: Electron microscopy of microtubules polymerized in the presence of PREG. In kind it is biochemical. The following applies: 500 nM of PREG. The method, then:
After the polymerization of the microtubules induced by MAP2 in the absence or presence of the substance to be tested, an aliquot portion of the experimental sample is deposited on a hydrophilic grid (300 mesh) covered with carbon. The grids are treated with an aqueous solution of 1% uranyl acetate. Observations are performed with a Phllips CM12 electron microscope.
Analysis was performed of microtubules polymerized in the presence of PREG to verify their appearance.

Test [2] deals with MAP2-tubulin copolymers (Bos taurus, UniProt A0A3Q1NAK9). The test is described as follows: Equilibrium binding of PREG [3H] to MAP2-tubulin copolymers. More on the design: species or system calf. The method, then: (§1) The calf tubulin is purified according to the protocol of Weingarten et al. (13), but the step using phosphocellulose is replaced by a cation exchange column chromatography (Fractogel, Merck) (14). The microtubules and the tubulin are prepared in L buffer, supplemented with 1 mM of GTP (buffer A).
(§2) The tau and MAP2 proteins are purified according to the protocol of Fellous et al. (12) by heat denaturation of the microtubules and gel filtration on a column, Sephacryl 300® being used instead of the Ultrogel ACA 34. The tau proteins are then Further purified according to the method of Lindwall and Cole (15).
(§3) Purified calf brain tubulin (90 μg/ml), MAP2 (45 μg/ml) or tau protein (25 μg/ml) is incubated with 100 nM of PREG [^3H], with or without a 1,000-fold excess of non-radioactive PREG.
(§4) The B/U values are reported in FIG. 5 as a function of B in nM, (-∘-) representing equilibrium binding of purified calf brain MAP2, and (-∘-) the equilibrium binding of purified calf brain MAP2 associated with purified calf brain tubulin (for the experimental details, see FIG. 1).

In test [3] the target is adult rat brain cytosol compound which binds PREG (Rattus norvegicus, UniProt P15146). Kind of test: Equilibrium binding of PREG to adult rat brain cytosol. On the procedure:
Adult male rat brains are collected after perfusion with PBS containing 2 IU/ml of heparin. The brains are weighed and homogenized with 4 vol. of homogenization buffer in Potter glass/Teflon® homogenizers, and centrifuged at 800 g for 10 min.
(§5) The supernatant is then centrifuged at 100,000 g for 1 h at 4° C. The samples are used immediately for the trials, or are stored in liquid nitrogen until the moment of their use.
(§6) Just before the binding trial, each sample is purified with a dextran-carbon suspension, and 2 ml samples of supernatant (purified cytosol) are added to a series of tubes containing 1 to 500 nM PREG [^3H], with or without unlabeled steroid in 1,000-fold excess.
(§7) The tubes are incubated at 45° C. for 30 min. The separation of bound and free steroid was carried out on a Sephadex LH-20® (Amersham Pharmacia Biotech) mini-column.
(§8) The counting of the radioactivity in the flasks was performed in a liquid scintillation spectrometer with attenuation correction (Tri-Carb 2100 TR®, Packard).

Test [4] deals with purified calf brain tubulin. Kind of test: Saturable binding of PREG [3H] to purified tubulin. The following applies: tubulin 90 μg/ml, 100 nM PREG [3H] ± 1,000-fold excess PREG. On the procedure:
as §1, §3

The target of test [5] is adult microtubules (Rattus norvegicus, UniProt P15146). Kind of test: Binding of PREG [3H] to purified adult rat brain microtubules. On the procedure:
The microtubules are prepared starting from calf brain or adult or fetal rat brain according to an assembly/disassembly method, as a function of the temperature, in vitro (12).
The binding of PREG [^3H] to microtubules prepared by polymerization/depolymerization cycles was determined.

Test [6] has as its system rat brain cytosol binding sites of pregnenolone. Kind of test: Competition trials for PREG [3H] binding in brain cytosol. The arrangement: key to R.C.R. 50 (relative competition index): IC50(PREG)/IC50(competitor) ×100; PREG = 100. Conditions: PREG = 100, 50% reduction of specific binding of 100 nM PREG [3H], mean±standard error, n=3. On the procedure:
In trials of competition between pregnenolone and different steroids for the binding studied, 0.2 ml of cytosol is incubated with 100 nM of PREG [^3H] and a 1-, 10-, 100-, and 1,000-fold excess of non-radioactive steroid.
To study the specificity of the binding of PREG [^3H], different steroids were used.
The relative competition index was determined as ratios of the concentrations of the competitor (in the […]) versus PREG causing a reduction of 50% of the specific binding of PREG [^3H]×100 (mean±standard error, n=3).

For test [7], the target named is T1, purified calf MAP2 (Bos taurus, UniProt A0A3Q1NAK9).
T1 construct: from tissue; host or cells: calf brain microtubules, heat denaturation and Sephacryl 300 gel filtration
The test is described as follows: Equilibrium binding of PREG [3H] to purified calf MAP2. On the procedure:
as §2, §3, §4

Test [8] deals with fetal rat brain cytosol binding sites of pregnenolone (Rattus norvegicus, UniProt P15146). Kind of test: Equilibrium binding of PREG [3H] to fetal brain cytosol. The following applies: mean±standard error, n=3. The method, then:
Fetal brains are collected, and are rinsed, after the meninges have been removed, with a homogenization buffer at 4° C. [10 mM of Tris-HCl, at pH 8.5, containing 1.5 mM of EDTA, 1 mM of dithiothreitol, 10% of glycerol, Complete®, (a mixture of protease inhibitors, Roche Molecular Biochemical); termed TEDG buffer].
as §5, §6, §7, §8
The equilibrium binding data are analyzed with the Mac Ligand program, adapted from Munson and Rodbard (17). […]
The bound steroid is separated by gel filtration on Sephadex LH20® at 0-4° C. The binding constants are determined with the Mac Ligand program.

For test [9], the system named is tau protein. The test is described as follows: Saturable binding of PREG [3H] to purified tau protein. Conditions: tau protein 25 μg/ml, 100 nM PREG [3H] ± 1,000-fold excess PREG. The arrangement: species or system calf. The method, then:
as §2, §3

Structures are written as SMILES.

MAP2-tubulin copolymers, sequence (A0A3Q1NAK9 1-1867): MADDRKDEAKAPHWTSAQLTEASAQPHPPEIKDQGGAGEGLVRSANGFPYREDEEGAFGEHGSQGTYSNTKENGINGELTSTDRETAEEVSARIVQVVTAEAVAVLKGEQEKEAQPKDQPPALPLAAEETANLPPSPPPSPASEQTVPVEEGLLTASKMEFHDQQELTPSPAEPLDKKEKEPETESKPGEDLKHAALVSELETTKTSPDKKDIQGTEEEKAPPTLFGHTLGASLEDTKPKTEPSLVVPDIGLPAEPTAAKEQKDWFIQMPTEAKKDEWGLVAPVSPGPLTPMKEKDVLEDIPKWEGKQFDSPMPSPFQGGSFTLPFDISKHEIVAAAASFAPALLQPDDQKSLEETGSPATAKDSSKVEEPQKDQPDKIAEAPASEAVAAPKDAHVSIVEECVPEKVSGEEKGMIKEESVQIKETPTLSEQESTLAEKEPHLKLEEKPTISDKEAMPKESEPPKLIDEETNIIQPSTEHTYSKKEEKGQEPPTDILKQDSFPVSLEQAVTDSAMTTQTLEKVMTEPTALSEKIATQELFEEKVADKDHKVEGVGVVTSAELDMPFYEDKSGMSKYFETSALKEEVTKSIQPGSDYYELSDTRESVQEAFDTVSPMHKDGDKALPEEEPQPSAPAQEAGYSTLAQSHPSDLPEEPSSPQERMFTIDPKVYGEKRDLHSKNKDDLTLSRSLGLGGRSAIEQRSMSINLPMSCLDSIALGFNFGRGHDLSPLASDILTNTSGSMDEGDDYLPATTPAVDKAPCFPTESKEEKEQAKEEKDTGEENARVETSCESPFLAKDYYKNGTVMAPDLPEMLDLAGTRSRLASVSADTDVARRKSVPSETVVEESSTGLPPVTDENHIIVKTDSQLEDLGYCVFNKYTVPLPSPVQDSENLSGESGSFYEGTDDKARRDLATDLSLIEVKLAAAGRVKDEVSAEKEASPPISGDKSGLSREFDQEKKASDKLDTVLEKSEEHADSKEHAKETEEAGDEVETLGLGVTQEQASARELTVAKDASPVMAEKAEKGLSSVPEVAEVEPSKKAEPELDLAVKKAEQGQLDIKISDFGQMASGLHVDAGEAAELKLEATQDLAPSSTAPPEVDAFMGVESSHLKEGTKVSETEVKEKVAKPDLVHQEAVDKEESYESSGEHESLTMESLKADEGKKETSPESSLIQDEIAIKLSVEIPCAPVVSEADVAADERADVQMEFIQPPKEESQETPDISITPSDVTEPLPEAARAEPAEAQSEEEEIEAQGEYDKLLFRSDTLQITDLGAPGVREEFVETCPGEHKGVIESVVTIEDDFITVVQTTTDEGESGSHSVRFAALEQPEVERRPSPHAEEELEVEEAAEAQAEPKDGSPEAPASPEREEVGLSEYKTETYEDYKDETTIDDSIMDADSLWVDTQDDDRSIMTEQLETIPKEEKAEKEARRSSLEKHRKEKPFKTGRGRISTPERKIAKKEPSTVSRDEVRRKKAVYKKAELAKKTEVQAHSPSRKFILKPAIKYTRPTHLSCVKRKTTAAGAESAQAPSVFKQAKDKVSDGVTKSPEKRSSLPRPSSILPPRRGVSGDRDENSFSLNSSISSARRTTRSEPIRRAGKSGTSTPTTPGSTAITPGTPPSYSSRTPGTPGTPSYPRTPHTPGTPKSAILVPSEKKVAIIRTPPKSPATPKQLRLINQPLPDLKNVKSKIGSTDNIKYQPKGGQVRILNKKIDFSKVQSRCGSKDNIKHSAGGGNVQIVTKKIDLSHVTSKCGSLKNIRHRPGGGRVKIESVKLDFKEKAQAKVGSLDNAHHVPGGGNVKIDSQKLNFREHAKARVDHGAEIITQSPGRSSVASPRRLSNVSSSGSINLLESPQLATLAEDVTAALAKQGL
T1 sequence (A0A3Q1NAK9 1-1867): as above
adult microtubules, sequence (Q3KRE8 whole entry): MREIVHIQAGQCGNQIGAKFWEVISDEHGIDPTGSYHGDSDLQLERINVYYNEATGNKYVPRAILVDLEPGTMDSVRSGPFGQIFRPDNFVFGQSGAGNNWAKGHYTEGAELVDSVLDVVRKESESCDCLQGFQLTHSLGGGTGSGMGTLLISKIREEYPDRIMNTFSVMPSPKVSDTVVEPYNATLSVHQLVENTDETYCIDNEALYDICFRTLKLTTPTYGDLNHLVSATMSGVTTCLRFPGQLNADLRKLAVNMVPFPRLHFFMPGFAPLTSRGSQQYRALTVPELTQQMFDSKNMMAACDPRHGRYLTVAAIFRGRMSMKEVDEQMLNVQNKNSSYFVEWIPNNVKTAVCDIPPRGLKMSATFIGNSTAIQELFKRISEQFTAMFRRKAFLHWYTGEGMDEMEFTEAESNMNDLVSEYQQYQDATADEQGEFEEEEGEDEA
adult microtubules, sequence (P68370 whole entry, further chain): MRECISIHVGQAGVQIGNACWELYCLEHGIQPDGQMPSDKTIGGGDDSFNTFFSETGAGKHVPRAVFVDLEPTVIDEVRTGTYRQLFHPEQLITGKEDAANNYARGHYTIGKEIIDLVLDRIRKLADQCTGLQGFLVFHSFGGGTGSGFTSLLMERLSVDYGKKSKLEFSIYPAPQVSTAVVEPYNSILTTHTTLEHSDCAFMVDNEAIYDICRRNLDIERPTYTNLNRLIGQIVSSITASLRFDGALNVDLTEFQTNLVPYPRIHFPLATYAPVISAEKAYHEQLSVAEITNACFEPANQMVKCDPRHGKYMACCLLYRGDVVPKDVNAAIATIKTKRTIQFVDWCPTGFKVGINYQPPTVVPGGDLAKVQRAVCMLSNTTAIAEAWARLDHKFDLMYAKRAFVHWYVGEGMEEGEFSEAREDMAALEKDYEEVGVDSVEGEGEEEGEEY
adult microtubules, sequence (P15146 whole entry): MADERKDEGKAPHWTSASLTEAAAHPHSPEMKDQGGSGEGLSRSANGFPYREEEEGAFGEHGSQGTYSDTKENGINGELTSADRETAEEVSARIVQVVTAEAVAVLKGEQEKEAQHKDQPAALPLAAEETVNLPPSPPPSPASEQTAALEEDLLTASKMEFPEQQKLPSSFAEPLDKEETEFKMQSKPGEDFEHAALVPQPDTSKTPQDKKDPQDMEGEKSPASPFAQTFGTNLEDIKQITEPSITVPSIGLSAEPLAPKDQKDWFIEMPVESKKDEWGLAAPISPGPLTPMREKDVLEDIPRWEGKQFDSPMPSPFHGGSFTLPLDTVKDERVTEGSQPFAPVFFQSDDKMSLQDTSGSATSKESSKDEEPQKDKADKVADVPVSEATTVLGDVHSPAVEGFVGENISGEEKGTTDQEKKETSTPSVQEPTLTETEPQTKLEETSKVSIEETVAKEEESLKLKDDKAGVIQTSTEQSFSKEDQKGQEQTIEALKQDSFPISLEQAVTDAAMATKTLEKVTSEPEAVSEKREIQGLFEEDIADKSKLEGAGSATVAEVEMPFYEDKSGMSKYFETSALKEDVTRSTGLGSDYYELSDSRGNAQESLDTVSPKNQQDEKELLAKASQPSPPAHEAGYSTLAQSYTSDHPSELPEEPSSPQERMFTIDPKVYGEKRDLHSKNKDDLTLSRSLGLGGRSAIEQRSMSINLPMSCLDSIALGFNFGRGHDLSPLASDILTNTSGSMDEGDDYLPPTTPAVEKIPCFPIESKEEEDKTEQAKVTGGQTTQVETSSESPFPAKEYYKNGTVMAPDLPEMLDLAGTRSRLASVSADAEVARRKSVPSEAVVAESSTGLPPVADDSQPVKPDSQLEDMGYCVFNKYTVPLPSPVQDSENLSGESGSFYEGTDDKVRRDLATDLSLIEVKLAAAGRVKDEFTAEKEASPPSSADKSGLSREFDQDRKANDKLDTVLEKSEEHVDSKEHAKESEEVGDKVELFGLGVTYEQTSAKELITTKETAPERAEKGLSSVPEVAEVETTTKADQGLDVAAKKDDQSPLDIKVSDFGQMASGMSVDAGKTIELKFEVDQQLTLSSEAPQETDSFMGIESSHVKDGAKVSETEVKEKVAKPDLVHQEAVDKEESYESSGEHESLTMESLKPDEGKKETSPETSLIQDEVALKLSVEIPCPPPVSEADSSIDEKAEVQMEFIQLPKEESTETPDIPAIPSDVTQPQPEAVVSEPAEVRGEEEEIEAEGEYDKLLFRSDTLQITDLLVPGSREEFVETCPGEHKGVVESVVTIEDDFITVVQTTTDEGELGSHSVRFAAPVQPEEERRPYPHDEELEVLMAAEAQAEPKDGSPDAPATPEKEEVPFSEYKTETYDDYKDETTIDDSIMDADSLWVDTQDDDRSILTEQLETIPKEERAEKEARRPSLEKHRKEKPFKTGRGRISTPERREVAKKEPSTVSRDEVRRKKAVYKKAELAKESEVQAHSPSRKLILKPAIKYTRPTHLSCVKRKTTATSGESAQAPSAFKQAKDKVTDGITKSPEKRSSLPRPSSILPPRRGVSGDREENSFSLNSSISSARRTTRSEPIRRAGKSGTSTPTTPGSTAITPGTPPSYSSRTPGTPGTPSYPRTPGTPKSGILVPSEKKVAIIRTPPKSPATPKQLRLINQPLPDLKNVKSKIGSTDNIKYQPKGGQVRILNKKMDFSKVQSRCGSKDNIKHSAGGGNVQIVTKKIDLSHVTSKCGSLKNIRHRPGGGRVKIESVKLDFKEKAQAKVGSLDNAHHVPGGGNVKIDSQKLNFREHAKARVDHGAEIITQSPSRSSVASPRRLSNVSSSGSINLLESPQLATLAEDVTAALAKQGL
adult rat brain cytosol compound which binds PREG, sequence (P15146 whole entry, the tested form may be a part): as the sequence (P15146 whole entry) above
fetal rat brain cytosol binding sites of pregnenolone, sequence (P15146 whole entry): as above

On to `CC(=O)C1CCC2C3CC=C4CC(O)CCC4(C)C3CCC12C` (centres unmarked) [Pregnenolone], for which the “structure of the microtubules” value in test [1] is “remains completely normal”. The Bmax in test [2] was 135 pmol/mg of MAP2; in test [3], 0.75 pmol/mg of protein; in [5], 3.4 pmol/mg of protein; in test [7] it was 16 pmol/mg of MAP2. For the same molecule, the Kd in [2] was determined as 44 nM; in test [7], 39.2 nM. The “saturable binding to tubulin” value in test [4] is “neither tubulin, nor tau protein, nor rabbit IgG binds PREG [^3H] in a saturable manner”. Moreover, the “R.C.R. 50 (relative competition index)” value in test [6] amounted to 100. The “maximum concentration of binding sites” value in test [8] is 1.2±0.1 pmol/mg of protein. Moreover, the “saturable binding to tau protein” value in test [9] was “neither tubulin, nor tau protein, nor rabbit IgG binds PREG [^3H] in a saturable manner”.
